According to PMC9828224, “Expansion of the Catalytic Repertoire of Alcohol Dehydrogenases in Plant Metabolism” (Angewandte Chemie (International Ed. in English), 2022):

Assays:
GS = target: T1, GS (Catharanthus roseus, UniProt W8JWW7); assay: X-ray crystal structure of complex, […] Å; assay type: binding; settings: active site; catalytic and structural zinc bound
T1 construct: construct details only in supplement

CrDPAS = target: T2, CrDPAS (Catharanthus roseus, UniProt A0A1B1FHP3); assay: enzymatic turnover, products by MS and NMR with deuterated cofactor; assay type: biochemical; settings: NADPH or 4-pro-R-NADPD; 1,4-iminium reduction
T2 construct: gene DPAS; construct details only in supplement; text prints PDB 8B26 for both CrDPAS and apo TiDPAS2
T2 sequence (A0A1B1FHP3 1-365): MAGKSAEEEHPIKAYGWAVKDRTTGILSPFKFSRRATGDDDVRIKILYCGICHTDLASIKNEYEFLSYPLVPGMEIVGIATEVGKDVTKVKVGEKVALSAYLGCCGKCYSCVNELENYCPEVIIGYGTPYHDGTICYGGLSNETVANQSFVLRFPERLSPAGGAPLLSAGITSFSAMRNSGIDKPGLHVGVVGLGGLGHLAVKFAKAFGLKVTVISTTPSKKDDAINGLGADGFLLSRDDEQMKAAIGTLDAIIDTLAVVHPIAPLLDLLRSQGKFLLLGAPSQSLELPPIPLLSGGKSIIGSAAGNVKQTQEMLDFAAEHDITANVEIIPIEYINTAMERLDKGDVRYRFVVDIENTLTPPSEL

T1 sequence (W8JWW7 2-364): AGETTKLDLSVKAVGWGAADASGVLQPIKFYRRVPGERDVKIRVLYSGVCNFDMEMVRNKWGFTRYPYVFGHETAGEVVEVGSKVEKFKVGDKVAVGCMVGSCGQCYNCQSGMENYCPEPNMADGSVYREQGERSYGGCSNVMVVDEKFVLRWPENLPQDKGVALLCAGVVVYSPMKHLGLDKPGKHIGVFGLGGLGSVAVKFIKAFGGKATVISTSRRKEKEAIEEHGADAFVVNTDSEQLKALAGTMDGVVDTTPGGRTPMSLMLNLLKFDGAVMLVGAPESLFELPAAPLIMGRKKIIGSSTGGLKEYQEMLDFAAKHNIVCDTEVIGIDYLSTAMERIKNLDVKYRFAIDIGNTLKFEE

| SMILES | X-ray crystal structure of complex, 2.00 Å (GS) | enzymatic turnover, products by MS and NMR with deuterated cofactor (CrDPAS) |
| --- | --- | --- |
| NC(=O)c1ccc[n+]([C@@H]2O[C@H](COP(=O)(O)OP(=O)(O)OC[C@H]3O[C@@H](n4cnc5c(N)ncnc54)[C@H](OP(=O)(O)O)[C@@H]3O)[C@@H](O)[C@H]2O)c1 [NADP+] | Active site of GS co‐crystallised with NADP^+ | – |
| C/C=C1/C=[N+]2CCc3c([nH]c4ccccc34)[C@@](COC(C)=O)(C(=O)OC)[C@H]1CC2 [precondylocarpine acetate] | – | we observed product formation when only DPAS and NADPH is incubated with precondylocarpine acetate |
